The values that follow come from patent publication US7517874B2 (priority 2007, dated 2009).

In assay [1] the target is human CB1 receptor (hCB1) (Homo sapiens, UniProt P21554). The experiment in a line: cell-based. It counts as cell-based. A digest of the protocol: (§1)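 Agonism or inverse agonism was assessed as change in intracellular cAMP in CHO-K1 cells expressing human CB1 or rat CB2 (genomic DNA, pcDNA3.1).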
A further assay addresses T1, rat CB2 receptor (rCB2) (Rattus norvegicus, UniProt Q9QZN9).
T1 sequence (Q9QZN9 1-360): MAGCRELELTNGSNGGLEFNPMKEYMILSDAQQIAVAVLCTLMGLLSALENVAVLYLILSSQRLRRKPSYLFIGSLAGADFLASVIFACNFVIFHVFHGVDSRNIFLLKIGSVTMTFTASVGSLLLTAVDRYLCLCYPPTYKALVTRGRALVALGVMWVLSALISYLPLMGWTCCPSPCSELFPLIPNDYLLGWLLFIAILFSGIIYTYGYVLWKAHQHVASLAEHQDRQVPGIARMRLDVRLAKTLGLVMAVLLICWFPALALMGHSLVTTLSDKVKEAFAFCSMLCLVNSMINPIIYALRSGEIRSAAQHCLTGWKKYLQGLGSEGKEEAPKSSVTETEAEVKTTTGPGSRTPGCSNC
The experiment in a line: cell-based. It counts as cell-based. The conditions noted are these: for +/− RCB2: agonist or inverse agonist at rCB2. A digest of the protocol: as §1

[2] abbreviates: groups >100 nM-10 μM and >10 μM, cAMP, CHO-K1 hCB1, read-out: EC50 HCB1.

Read-outs that look alike come from different tables or passages of the source.

As usually defined, the EC50 is the concentration at which the effect is half-maximal.

Sequence of human CB1 receptor (hCB1) (P21554 whole entry): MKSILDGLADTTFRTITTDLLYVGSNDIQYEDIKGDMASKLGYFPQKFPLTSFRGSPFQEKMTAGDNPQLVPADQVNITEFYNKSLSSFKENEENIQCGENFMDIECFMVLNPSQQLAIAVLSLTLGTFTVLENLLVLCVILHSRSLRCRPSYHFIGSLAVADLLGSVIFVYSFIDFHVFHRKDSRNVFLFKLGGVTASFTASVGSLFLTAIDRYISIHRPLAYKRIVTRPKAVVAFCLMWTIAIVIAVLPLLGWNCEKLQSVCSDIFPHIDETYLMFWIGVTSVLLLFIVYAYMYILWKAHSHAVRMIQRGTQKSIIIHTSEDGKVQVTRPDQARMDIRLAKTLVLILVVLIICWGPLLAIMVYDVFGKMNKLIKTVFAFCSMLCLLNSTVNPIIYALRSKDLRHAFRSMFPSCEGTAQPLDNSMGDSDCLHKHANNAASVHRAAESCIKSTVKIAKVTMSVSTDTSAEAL

`CC12CCC(C1)C(C)(C)C2NC(=O)c1nc(-c2ccccc2)n2c1CN(C(=O)c1ccccc1)CC2` (centres unmarked) [Compound 120, 7-benzoyl-3-phenyl-N-(1,3,3-trimethylbicyclo[2.2.1]heptan-2-yl)-5,6,7,8-tetrahydroimidazo[1,5-a]pyrazine-1-carboxamide] registered an EC50 in assay [1] greater than 10000 nM. Besides, at rat CB2 receptor (rCB2), the “+/− RCB2” value is “+”.
Consider `CC12CCC(C1)C(C)(C)C2NC(=O)c1nc(-c2ccccc2)n2c1CN(C(=O)C1CCOC1)CC2` (centres unmarked) [Compound 121, 3-phenyl-7-(tetrahydrofuran-3-carbonyl)-N-(1,3,3-trimethylbicyclo[2.2.1]heptan-2-yl)-5,6,7,8-tetrahydroimidazo[1,5-a]pyrazine-1-carboxamide], for which the EC50 in assay [1] was greater than 10000 nM. Further, the “+/− RCB2” value at rat CB2 receptor (rCB2) is listed as “−”.
Turning to `CC12CCC(C1)C(C)(C)C2NC(=O)c1nc(-c2ccccc2)n2c1CN(C(=O)c1ccco1)CC2` (centres unmarked) [Compound 122, 7-(furan-2-carbonyl)-3-phenyl-N-(1,3,3-trimethylbicyclo[2.2.1]heptan-2-yl)-5,6,7,8-tetrahydroimidazo[1,5-a]pyrazine-1-carboxamide], the EC50 in assay [1] (setting [2]) was greater than 10000 nM. Besides, the “+/− RCB2” value at rat CB2 receptor (rCB2) is “−”.
In assay [1], `CC(C)(C)C(=O)N1CCn2c(-c3ccccc3)nc(C(=O)NC3C4(C)CCC(C4)C3(C)C)c2C1` (centres unmarked) [Compound 123, 3-phenyl-7-pivaloyl-N-(1,3,3-trimethylbicyclo[2.2.1]heptan-2-yl)-5,6,7,8-tetrahydroimidazo[1,5-a]pyrazine-1-carboxamide] returned an EC50 greater than 10000 nM. Also, on rat CB2 receptor (rCB2), the “+/− RCB2” value was “−”.
Consider `C[C@H](NC(=O)c1nc(-c2ccccc2)n2c1CN(C(=O)C1CC1)CC2)c1ccccc1` [Compound 124, (S)-7-(cyclopropanecarbonyl)-3-phenyl-N-(1-phenylethyl)-5,6,7,8-tetrahydroimidazo[1,5-a]pyrazine-1-carboxamide], for which the EC50 in assay [1] is greater than 10000 nM. Also, the “+/− RCB2” value on rat CB2 receptor (rCB2) is “−”.
For `C[C@H](NC(=O)c1nc(-c2ccccc2)n2c1CN(C(=O)c1ccccc1)CC2)c1ccccc1` [Compound 125, (S)-7-benzoyl-3-phenyl-N-(1-phenylethyl)-5,6,7,8-tetrahydroimidazo[1,5-a]pyrazine-1-carboxamide] the same measures were greater than 10000 nM and “−”.
For `CNC(=O)[C@@H](NC(=O)c1nc(-c2ccccc2)n2c1CN(C(=O)C1CC1)CC2)C(C)(C)C` [Compound 126, (S)-7-(cyclopropanecarbonyl)-N-(3,3-dimethyl-1-(methylamino)-1-oxobutan-2-yl)-3-phenyl-5,6,7,8-tetrahydroimidazo[1,5-a]pyrazine-1-carboxamide] the same measures were greater than 10000 nM and “−”.
Turning to `CNC(=O)[C@@H](NC(=O)c1nc(-c2ccccc2)n2c1CN(C(=O)c1ccccc1)CC2)C(C)(C)C` [Compound 127, (S)-7-benzoyl-N-(3,3-dimethyl-1-(methylamino)-1-oxobutan-2-yl)-3-phenyl-5,6,7,8-tetrahydroimidazo[1,5-a]pyrazine-1-carboxamide], the EC50 (in assay [1]; on rat CB2 receptor (rCB2)) was greater than 10000 nM in each case.
Consider `CNC(=O)[C@@H](NC(=O)c1nc(-c2ccccc2)n2c1CN(C(=O)c1ccco1)CC2)C(C)(C)C` [Compound 128, (S)-N-(3,3-dimethyl-1-(methylamino)-1-oxobutan-2-yl)-7-(furan-2-carbonyl)-3-phenyl-5,6,7,8-tetrahydroimidazo[1,5-a]pyrazine-1-carboxamide], for which the EC50 in assay [1] is greater than 10000 nM. The “+/− RCB2” value at rat CB2 receptor (rCB2) is “−”.
`O=C(Nc1ccccc1)c1nc(-c2ccccc2)n2c1CN(C(=O)C1CC1)CC2` [Compound 129, 7-(cyclopropanecarbonyl)-N,3-diphenyl-5,6,7,8-tetrahydroimidazo[1,5-a]pyrazine-1-carboxamide]: in assay [1] (setting [2]), the EC50 is greater than 10000 nM. Also, the “+/− RCB2” value on rat CB2 receptor (rCB2) was “−”.
`CC(C)CCNC(=O)c1nc(-c2ccc(Cl)cc2)n2c1CN(C(=O)c1ccccc1)CC2` [Compound 130, 7-benzoyl-3-(4-chlorophenyl)-N-isopentyl-5,6,7,8-tetrahydroimidazo[1,5-a]pyrazine-1-carboxamide] yielded an EC50 in assay [1] greater than 10000 nM. In addition, the “+/− RCB2” value on rat CB2 receptor (rCB2) is recorded as “−”.
Taken in the same sequence, the figures for `CC(C)CCNC(=O)c1nc(-c2ccc(Cl)cc2)n2c1CN(C(=O)C1CC1)CC2` [Compound 131, 3-(4-chlorophenyl)-7-(cyclopropanecarbonyl)-N-isopentyl-5,6,7,8-tetrahydroimidazo[1,5-a]pyrazine-1-carboxamide] were greater than 10000 nM and “−”.
`C[C@@H](NC(=O)c1nc(-c2ccccc2)n2c1CN(C(=O)C1CC1)CC2)C1CCCCC1` [Compound 132, (R)-N-(1-cyclohexylethyl)-7-(cyclopropanecarbonyl)-3-phenyl-5,6,7,8-tetrahydroimidazo[1,5-a]pyrazine-1-carboxamide]: the EC50 in assay [1] was greater than 10000 nM. The “+/− RCB2” value at rat CB2 receptor (rCB2) is listed as “−”.
The compound `C[C@@H](NC(=O)c1nc(-c2ccccc2)n2c1CN(C(=O)C(C)(C)C)CC2)C1CCCCC1` [Compound 133, (R)-N-(1-cyclohexylethyl)-3-phenyl-7-pivaloyl-5,6,7,8-tetrahydroimidazo[1,5-a]pyrazine-1-carboxamide] gave an EC50 in assay [1] greater than 10000 nM. The “+/− RCB2” value at rat CB2 receptor (rCB2) is “−”.
With `O=C(NCC1CCOCC1)c1nc(-c2ccccc2)n2c1CN(C(=O)C1CC1)CC2` [Compound 134, 7-(cyclopropanecarbonyl)-3-phenyl-N-((tetrahydro-2H-pyran-4-yl)methyl)-5,6,7,8-tetrahydroimidazo[1,5-a]pyrazine-1-carboxamide], the EC50 in assay [1] (setting [2]) is greater than 10000 nM. Besides, the “+/− RCB2” value at rat CB2 receptor (rCB2) is given as “−”.
Consider `O=C(NCC1CCOCC1)c1nc(-c2ccccc2)n2c1CN(C(=O)C1CCOC1)CC2` (centres unmarked) [Compound 135, 3-phenl-N-((tetrahydro-2H-pyran-4-yl)methyl)-7-(tetrahydrofuran-3-carbonyl)-5,6,7,8-tetrahydroimidazo[1,5-a]pyrazine-1-carboxamide], for which the EC50 in assay [1] (setting [2]) was greater than 10000 nM; on rat CB2 receptor (rCB2) (groups >100 nM-10 μM and >10 μM, cAMP, CHO-K1 rCB2, read-out: EC50 RCB2), greater than 10000 nM.
As for `O=C(NC1CCCCC1)c1nc(-c2ccccc2)n2c1CN(C(=O)C1CC1)CC2` [Compound 136, N-cyclohexyl-7-(cyclopropanecarbonyl)-3-phenyl-5,6,7,8-tetrahydroimidazo[1,5-a]pyrazine-1-carboxamide], the EC50 in assay [1] (setting [2]) was greater than 10000 nM. For the same compound, the “+/− RCB2” value at rat CB2 receptor (rCB2) is reported as “−”.
Take `CC(C)(C)C(=O)N1CCn2c(-c3ccccc3)nc(C(=O)NC3CCCCC3)c2C1` [Compound 137, N-cyclohexyl-3-phenyl-7-pivaloyl-5,6,7,8-tetrahydroimidazo[1,5-a]pyrazine-1-carboxamide]: the EC50 in assay [1] (setting [2]) was greater than 10000 nM. Further, at rat CB2 receptor (rCB2), the “+/− RCB2” value is “−”.
In the case of `O=C(NC1CCCCC1)c1nc(-c2ccccc2)n2c1CN(C(=O)c1ccoc1)CC2` [Compound 138, N-cyclohexyl-7-(furan-3-carbonyl)-3-phenyl-5,6,7,8-tetrahydroimidazo[1,5-a]pyrazine-1-carboxamide], in assay [1] (setting [2]), the EC50 was greater than 10000 nM. Further, the “+/− RCB2” value at rat CB2 receptor (rCB2) is reported as “−”.
In assay [1], `C[C@@H](NC(=O)c1nc(-c2ccccc2)n2c1CN(C(=O)C1CCOC1)CC2)C1CCCCC1` (stereo partly drawn) [Compound 139, N-((R)-1-cyclohexylethyl)-3-phenyl-7-(tetrahydrofuran-3-carbonyl)-5,6,7,8-tetrahydroimidazo[1,5-a]pyrazine-1-carboxamide] returned an EC50 greater than 10000 nM. Further, the “+/− RCB2” value at rat CB2 receptor (rCB2) is listed as “−”.
`C[C@@H](NC(=O)c1nc(-c2ccccc2)n2c1CN(CCO)CC2)C1CCCCC1` [Compound 140, (R)-N-(1-cyclohexylethyl)-7-(2-hydroxyethyl)-3-phenyl-5,6,7,8-tetrahydroimidazo[1,5-a]pyrazine-1-carboxamide] registered an EC50 in assay [1] greater than 10000 nM. For the same compound, at rat CB2 receptor (rCB2), the “+/− RCB2” value is on record as “−”.
Consider `O=C(NC1CCCCC1)c1nc(-c2ccccc2)n2c1CN(CC1CCOC1)CC2` (centres unmarked) [Compound 141, N-cyclohexyl-3-phenyl-7-((tetrahydrofuran-3-yl)methyl)-5,6,7,8-tetrahydroimidazo[1,5-a]pyrazine-1-carboxamide], for which, in assay [1], the EC50 is greater than 10000 nM. In addition, at rat CB2 receptor (rCB2), the “+/− RCB2” value is recorded as “−”.
For `CC(C)CN1CCn2c(-c3ccccc3)nc(C(=O)NC3C4(C)CCC(C4)C3(C)C)c2C1` (centres unmarked) [Compound 142, 7-isobutyl-3-phenyl-N-(1,3,3-trimethylbicyclo[2.2.1]heptan-2-yl)-5,6,7,8-tetrahydroimidazo[1,5-a]pyrazine-1-carboxamide], the EC50 in assay [1] was greater than 10000 nM. For the same compound, at rat CB2 receptor (rCB2), the “+/− RCB2” value is recorded as “−”.
On to `CC12CCC(C1)C(C)(C)C2NC(=O)c1nc(-c2ccccc2)n2c1CN(CCO)CC2` (centres unmarked) [Compound 143, 7-(2-hydroxyethyl)-3-phenyl-N-(1,3,3-trimethylbicyclo[2.2.1]heptan-2-yl)-5,6,7,8-tetrahydroimidazo[1,5-a]pyrazine-1-carboxamide], for which the EC50 in assay [1] is greater than 10000 nM. For the same compound, the “+/− RCB2” value on rat CB2 receptor (rCB2) is “−”.
In turn, `CCN1CCn2c(-c3ccccc3)nc(C(=O)NC3C4(C)CCC(C4)C3(C)C)c2C1` (centres unmarked) [Compound 144, 7-ethyl-3-phenyl-N-(1,3,3-trimethylbicyclo[2.2.1]heptan-2-yl)-5,6,7,8-tetrahydroimidazo[1,5-a]pyrazine-1-carboxamide] registered an EC50 in assay [1] greater than 10000 nM. Besides, on rat CB2 receptor (rCB2), the “+/− RCB2” value is listed as “−”.
